Data published in paper PMC11869560, “Anticancer and cancer preventive activities of shogaol and curcumin from Zingiberaceae family plants in KG-1a leukemic stem cells” (BMC Complementary Medicine and Therapies, 2025).
Values after ≈ are worked out from the molar mass of the structure shown. Where two headings read alike, the source gives them in different places.

Legend:
Type in all cases: cell-based, human
PBMCs = assay: MTT cytotoxicity assay in PBMCs; conditions: Homo sapiens, PBMC; for IC20: incubation for 48 h, read-out: IC20 PBMCs (inhibitory concentration at 20% growth)
Method: PBMCs were isolated from blood samples using the Ficoll-Hypaque technique. Initially, 10–20 mL of blood was collected in a heparin tube at a ratio of 1:500 from a minimum of three healthy volunteers. Subsequently, the blood samples were diluted with Phosphate buffer saline (PBS), pH 7.4, at a ratio of 1:1 to reduce viscosity. Histopaque-1077 (Sigma-Aldrich, MA, USA) was then underlaid the diluted sample and centrifuged at 400×g for 30 min. The resulting PBMCs were collected, washed with PBS, pH 7.4, and prepared for further experiments.
MTT (3-(4,5-dimethylthiazol-2-yl)-2,5-diphenyltetrazolium bromide) assay was used to investigate the cytotoxicity of the test samples. KG-1a (1.5 × 10^4 cells/well), K562 (1.0 × 10^4 cells/well), PBMCs (1.0 × 10^5 cells/well), A549 (5.0 × 10^3 cells/well), MCF-7 (5.0 × 10^3 cells/well), and HeLa (5.0 × 10^3 cells/well) were seeded into a 96-well plate and incubated overnight at 37 °C with 5% CO2. […] After that, 5 mg/mL of MTT dye solution (Sigma-Aldrich, MA, USA) was added and incubated for 4 h. The produced formazan crystals were dissolved in 200 µL of DMSO (Sigma-Aldrich, MA, USA); then, the optical density (OD) was measured using an ELISA plate reader (Metertech, Taipei, Taiwan) at 578 nm with a reference wavelength of 630 nm. The percentage of surviving cells was calculated from the absorbance values of the test and control wells using the following Equation. 1 [drawing 1]
where ODsample is a mean absorbance in test well and ODvehicle control is a mean absorbance in VC well. The average percentage of surviving cells at each concentration obtained from triplicate experiments was plotted as a dose-response curve. Inhibitory concentration values at 50% growth (IC50 value) were defined as the lowest concentration of the test sample that inhibited cell growth by 50% compared to the untreated control.
To calculate IC50 values, a dose-response curve was fitted using non-linear regression analysis, as described in the GraphPad Prism guidelines (https://www.graphpad.com/support/faq/how-to-determine-an-icsub50sub/). The IC50 value was obtained by determining the point at which the curve intersected 50% growth inhibition. Non-linear regression graphs of the dose-response curve for each compound are provided in the supplementary data file (Figs. S1–S8).

KG-1a cells [1] = assay: Trypan blue exclusion test, cell numbers of KG-1a cells; conditions: IC20 concentrations, 48 h
Method: (§1) This test was used to confirm the cytotoxicity of the test samples. The cancer cells after exposure to crude ethanolic extracts and active compounds for 48 h were harvested and washed with ice-cold PBS, pH 7.4 for 3 times. Then, the cells were resuspended with PBS, pH 7.4. The cell suspensions were diluted with PBS, pH 7.4 at the appropriate dilution before being mixed with 0.2% trypan blue solution at 1:2 dilution for cell count on a hemocytometer. From this test, the viable cells and the dead cells could also be obviously detected.
as §1, with “crude ethanolic extracts and active compounds. KG-1a” for “the test samples. The cancer”

KG-1a cells [2] = assay: Cell death analysis by PI staining and flow cytometry in KG-1a cells; conditions: nocodazole 5–120 ng/mL, shogaol 6–9 µg/mL, curcumin various concentrations; time course
Method: Additionally, PI staining was used to investigate the cytotoxicity of the active compounds. KG-1a cells after exposure to the active compounds with various concentration were harvested at different incubation times and washed with ice-cold PBS, pH 7.4 for 2 times. Then, the cells were resuspended with PI in PBS, pH 7.4 at a ratio of 1:10,000. The percentage of dead cells was detected by flow cytometry (CytoFLEX S, Beckman Coulter, CA, USA) and analyzed by CytExpert program (Beckman Coulter, CA, USA).

[3] = tested on: p-c-Jun and p-SAPK/JNK in KG-1a cells; assay: p-c-Jun and p-SAPK/JNK in KG-1a cells by Western blotting; conditions: IC50 concentration, 6 h
Method: (§2) KG-1a cells (1.5 × 10^5 cells/mL) were treated with compounds or extracts at different incubation times. Then, the cells were harvested and the whole proteins were extracted using a RIPA buffer (25 mM Tris-base, pH 7.6, 0.1% SDS, 1% Triton X-100, 150 mM NaCl, and 1 mM EDTA). The protein concentration was measured using the Folin-Lowry or Bradford assay. The whole protein lysates (30 µg/lane) were then separated through 7.5% SDS-PAGE under reducing conditions and then transferred to PVDF membranes. The membranes were blocked in 5% skim milk in PBS, pH 7.4 at RT for 2 h, then, target proteins were probed with specific primary antibodies (anti-WT1, anti-CD34, anti-GAPDH, anti-cleaved caspase-3, anti-cleaved PARP, anti-phospho-Akt, anti-phospho-c-Jun, anti-phospho-SAPK/JNK, and anti-YAP/TAZ) indicated in Table S10 which diluted at a ratio of 1:1,000 in PBS, pH 7.4 at RT for 2 h. After incubation, the membranes were rinsed 6 times with 0.1% Tween-20 (Sigma-Aldrich, MA, USA) in PBS, pH 7.4 (PBS-T), each time for 5 min. […] Finally, the protein band signal was quantified by using a scan densitometer (Bio-Rad Laboratories, CA, USA). […]

[4] = tested on: p-Akt (S473) in KG-1a cells; assay: p-Akt (S473) in KG-1a cells by Western blotting; conditions: IC50 concentration, 6 h
Method: as §2

[5] = Table S8, PBMCs, first replicate, read-out: IC50 value R1
[6] = Table S8, PBMCs, second replicate, read-out: IC50 value R2
[7] = Table S8, PBMCs, third replicate, read-out: IC50 value R3
[8] = active compounds and drugs, MTT, 48 h, read-out: IC50 PBMCs

| SMILES | IC50 (PBMCs; [5]) [µg/mL] | IC50 (PBMCs; [6]) [µg/mL] | IC50 (PBMCs; [7]) [µg/mL] | IC50 (PBMCs; [8]) [µg/mL] | IC20 (PBMCs) [µg/mL] | decrease of total cell number compared to VC (KG-1a cells [1]) [%] | normalized viable cell counts (KG-1a cells [1]) | induction of cell death (PI staining) (KG-1a cells [2]) | p-c-Jun and p-SAPK/JNK levels compared to VC [3] | p-Akt (S473) level compared to VC [4] |
| --- | --- | --- | --- | --- | --- | --- | --- | --- | --- | --- |
| COc1cc(/C=C/C(=O)CC(=O)/C=C/c2ccc(O)c(OC)c2)ccc1O [Curcumin, curcumin] | 13.8 (≈ 37.4 µM) | 14.6 (≈ 39.6 µM) | 13 (≈ 35.2 µM) | 13.8 ± 0.82 (≈ 37.4 µM) | 3.72 ± 0.58 (≈ 10.1 µM) | 40.75 ± 12.78 | 954.40 ± 3.19 × 10^3 cells per 1 million total cells | gradually induced cell death after 12 h of incubation | increased | decreased |
| CCCCC/C=C/C(=O)CCc1ccc(O)c(OC)c1 [Shogaol, shogaol] | 8.3 (≈ 30 µM) | 9.9 (≈ 35.8 µM) | 9.35 (≈ 33.8 µM) | 9.18 ± 0.82 (≈ 33.2 µM) | 6.06 ± 1.11 (≈ 21.9 µM) | 35.32 ± 6.10 | 976.13 ± 13.69 × 10^3 cells per 1 million total cells | notably induced cell death at 6 h | increased | decreased |
